Source: ChEMBL document CHEMBL1201862, “PubChem BioAssay data set” (2004)
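1) Cells in 96-well plates. 2) Compound, 48 h, 5 concentrations. 3) Linear interpolation between surrounding doses. 4) Unreached endpoint = highest concentration. GI50 = concentration required for 50% inhibition of growth.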 The source made the active and inactive calls. Cut-off read from the data, not from the text of the source: active = GI50 up to about 1.1 µM and inactive = higher.

How the values were obtained:
Test in all cases: growth of human tumour cells (NCI), 48 h
A498 = system: A498
SR = system: SR
M14 = system: M14
MDA-MB-435 = system: MDA-MB-435
HT-29 = system: HT-29
HCT-116 = system: HCT-116
U-251 = system: U-251
HL-60 = system: HL-60
Malme-3M = system: Malme-3M
MDA-N = system: MDA-N
NCI-H522 = system: NCI-H522
DU-145 = system: DU-145
SF-295 = system: SF-295
SK-MEL-28 = system: SK-MEL-28
SN12C = system: SN12C
HOP-92 = system: HOP-92
OVCAR-8 = system: OVCAR-8
MCF7 = system: MCF7
HCC 2998 = system: HCC 2998
SF-268 = system: SF-268

Measured: GI50

COc1cc2nc(-c3ccccc3)cc(O)c2cc1OC
inactive: A498 40.6 µM | SR 6 µM | M14 9.02 µM | MDA-MB-435 2.86 µM | HT-29 9.84 µM | HCT-116 6.1 µM | U-251 6.95 µM | HL-60 5.78 µM | Malme-3M > 50.6 µM | MDA-N 2.18 µM | NCI-H522 5.83 µM | DU-145 54 µM | SF-295 18.5 µM | SK-MEL-28 36.2 µM | SN12C 31.4 µM | HOP-92 33.7 µM | OVCAR-8 35.1 µM | MCF7 2.54 µM | HCC 2998 16.5 µM | SF-268 41.6 µM

COC(=O)CC(=O)Nc1sccc1S(=O)(=O)c1ccccc1
inactive: A498 > 100 µM | SR > 100 µM | M14 27 µM | MDA-MB-435 > 100 µM | HT-29 > 100 µM | HCT-116 > 100 µM | U-251 > 100 µM | HL-60 > 100 µM | Malme-3M > 100 µM | MDA-N 35.2 µM | NCI-H522 46.9 µM | DU-145 71.3 µM | SF-295 > 100 µM | SK-MEL-28 > 100 µM | SN12C > 100 µM | HOP-92 > 100 µM | OVCAR-8 > 100 µM | MCF7 65.8 µM | HCC 2998 15.8 µM | SF-268 > 100 µM

COc1ccccc1C1c2cc3c(cc2OC(N2CCCC2)C1C)OCO3 (stereo unspecified)
inactive: A498 15.2 µM | SR 6.21 µM | M14 13.7 µM | MDA-MB-435 12.4 µM | HT-29 21.4 µM | HCT-116 14.8 µM | U-251 18.8 µM | HL-60 14.2 µM | Malme-3M 18.4 µM | MDA-N 11.1 µM | NCI-H522 9.95 µM | DU-145 15.2 µM | SF-295 16.7 µM | SK-MEL-28 20.4 µM | SN12C 17.1 µM | HOP-92 3.08 µM | OVCAR-8 21.2 µM | MCF7 18.9 µM | HCC 2998 15.8 µM | SF-268 13.6 µM

Cc1ccc(NC(=O)c2cccc(OP(=O)(Nc3ccc(C)cc3)Nc3ccc(C)cc3)c2)cc1
inactive: A498 18.1 µM | SR 3.4 µM | M14 3.21 µM | MDA-MB-435 7.48 µM | HT-29 3.5 µM | HCT-116 4.18 µM | U-251 6.58 µM | HL-60 9.95 µM | Malme-3M 4.83 µM | MDA-N 3.78 µM | NCI-H522 2.78 µM | DU-145 53.3 µM | SF-295 7.13 µM | SK-MEL-28 29.9 µM | SN12C 16.3 µM | HOP-92 3.23 µM | OVCAR-8 16 µM | MCF7 5.62 µM | HCC 2998 5.21 µM | SF-268 43.1 µM

O=c1c2ccccc2n2cnc3ccc(NCCNCCO)c1c32
inactive: A498 1.71 µM | M14 2.71 µM | MDA-MB-435 1.52 µM | U-251 2.1 µM | HL-60 2.42 µM | Malme-3M 2.36 µM | MDA-N 1.9 µM | NCI-H522 1.49 µM | SF-295 1.83 µM | SK-MEL-28 3.18 µM | SN12C 1.51 µM | HOP-92 4.24 µM | MCF7 2.52 µM | HCC 2998 1.77 µM | SF-268 1.46 µM
active: SR 0.467 µM | HT-29 1.06 µM | HCT-116 0.798 µM | DU-145 0.384 µM | OVCAR-8 0.855 µM

Fc1ccc(/N=N/N2CCCC2)cc1
inactive: A498 > 100 µM | SR 28.4 µM | M14 > 100 µM | MDA-MB-435 37.2 µM | HT-29 > 100 µM | HCT-116 85.7 µM | U-251 > 100 µM | HL-60 50.4 µM | Malme-3M > 100 µM | MDA-N 32.4 µM | NCI-H522 > 100 µM | DU-145 52.5 µM | SF-295 8.04 µM | SK-MEL-28 94 µM | SN12C 51.1 µM | HOP-92 > 100 µM | MCF7 77.8 µM | HCC 2998 15.5 µM | SF-268 > 100 µM

C=CC(C)(O)/C=C/C=C(\C)C(CC1OC1(C)C)OC(=O)/C(C)=C\C (stereo unspecified)
inactive: A498 > 100 µM | SR > 100 µM | M14 > 100 µM | MDA-MB-435 > 100 µM | HT-29 > 100 µM | HCT-116 > 100 µM | U-251 > 100 µM | HL-60 > 100 µM | Malme-3M > 100 µM | MDA-N > 100 µM | NCI-H522 > 100 µM | DU-145 > 100 µM | SF-295 > 100 µM | SK-MEL-28 > 100 µM | SN12C > 100 µM | HOP-92 > 100 µM | OVCAR-8 > 100 µM | MCF7 > 100 µM | HCC 2998 > 100 µM | SF-268 > 100 µM

COc1ccc(/C=C2\CCC(CN3CCOCC3)C2=O)cc1 (stereo unspecified)
inactive: A498 9.44 µM | SR 1.46 µM | M14 2.16 µM | MDA-MB-435 2.05 µM | HT-29 2.44 µM | HCT-116 1.8 µM | U-251 17.3 µM | Malme-3M 3.01 µM | MDA-N 2.79 µM | DU-145 2.23 µM | SF-295 17.2 µM | SK-MEL-28 3.06 µM | SN12C 3.83 µM | HOP-92 2.52 µM | OVCAR-8 2.74 µM | MCF7 2.38 µM | HCC 2998 5.48 µM | SF-268 6.76 µM
active: HL-60 0.762 µM | NCI-H522 0.776 µM

C=C(CN(C)C)C(=O)c1ccc(OC2OC(COC(C)=O)C(OC(C)=O)C(OC(C)=O)C2OC(C)=O)cc1 (stereo unspecified)
active: SR 0.975 µM | HL-60 0.456 µM | NCI-H522 0.447 µM | HOP-92 0.581 µM
inactive: A498 14.1 µM | M14 2.4 µM | MDA-MB-435 6.18 µM | HT-29 2.75 µM | HCT-116 2.25 µM | U-251 15.8 µM | Malme-3M 1.96 µM | MDA-N 3.03 µM | DU-145 17.5 µM | SF-295 21.3 µM | SK-MEL-28 2.52 µM | SN12C 9.98 µM | OVCAR-8 4.21 µM | MCF7 1.77 µM | HCC 2998 18.1 µM | SF-268 19.7 µM

CC(=O)NC1C(O)C(O)C(CO)OC1n1nc(SCc2ccccc2)c(=O)[nH]c1=O (stereo unspecified)
inactive: A498 > 100 µM | SR > 100 µM | M14 > 100 µM | MDA-MB-435 > 100 µM | HT-29 > 100 µM | HCT-116 > 100 µM | U-251 > 100 µM | HL-60 > 100 µM | Malme-3M > 100 µM | MDA-N > 100 µM | NCI-H522 > 100 µM | DU-145 > 100 µM | SF-295 > 100 µM | SK-MEL-28 > 100 µM | SN12C > 100 µM | HOP-92 > 100 µM | OVCAR-8 > 100 µM | MCF7 > 100 µM | HCC 2998 > 100 µM | SF-268 > 100 µM

C=CCn1c(=O)c(C(=O)Nc2nc(C34CC5CC(CC(C5)C3)C4)cs2)c(O)c2ccccc21
inactive: A498 25.3 µM | SR 37.1 µM | MDA-MB-435 63.4 µM | HT-29 19.1 µM | HCT-116 30 µM | U-251 50.2 µM | HL-60 23.4 µM | Malme-3M 26 µM | MDA-N 48.6 µM | NCI-H522 44 µM | DU-145 47.8 µM | SF-295 17.9 µM | SK-MEL-28 63 µM | SN12C 45.5 µM | HOP-92 28.4 µM | OVCAR-8 82.8 µM | MCF7 50.6 µM | HCC 2998 37.5 µM | SF-268 > 10 µM

COc1ccc(N2C(=O)c3cccnc3S2(=O)=O)cc1
inactive: A498 > 100 µM | SR > 100 µM | M14 > 100 µM | MDA-MB-435 > 100 µM | HT-29 > 100 µM | HCT-116 > 100 µM | U-251 > 100 µM | HL-60 > 100 µM | Malme-3M > 100 µM | MDA-N > 100 µM | NCI-H522 > 100 µM | DU-145 > 100 µM | SF-295 > 100 µM | SK-MEL-28 > 100 µM | SN12C > 100 µM | HOP-92 > 100 µM | OVCAR-8 > 100 µM | MCF7 > 100 µM | HCC 2998 > 100 µM | SF-268 > 100 µM

O=C(O)c1ccc([N+](=O)[O-])c2cc3cnccc3nc12
inactive: A498 70 µM | SR 43.2 µM | M14 17.8 µM | MDA-MB-435 26.9 µM | HT-29 22.6 µM | HCT-116 18.4 µM | U-251 19.9 µM | HL-60 > 100 µM | Malme-3M 15.2 µM | MDA-N 20.6 µM | NCI-H522 13.4 µM | DU-145 33 µM | SF-295 43.5 µM | SK-MEL-28 18.6 µM | SN12C 16.3 µM | HOP-92 30.1 µM | OVCAR-8 22.4 µM | MCF7 19.3 µM | HCC 2998 22.3 µM

O=c1c2c3c(sc2nc2n1N=C(c1ccc(Cl)cc1)CS2)CCCC3
inactive: A498 > 100 µM | SR > 100 µM | MDA-MB-435 > 100 µM | HT-29 > 100 µM | HCT-116 > 100 µM | U-251 > 100 µM | HL-60 > 100 µM | Malme-3M > 100 µM | MDA-N > 100 µM | NCI-H522 > 100 µM | DU-145 > 100 µM | SF-295 > 100 µM | SK-MEL-28 > 100 µM | SN12C > 100 µM | HOP-92 > 100 µM | OVCAR-8 > 100 µM | MCF7 > 100 µM | HCC 2998 > 100 µM | SF-268 > 100 µM
